Counter-ions that a name gives are not always drawn. Like-named read-outs stand apart in the source and are kept apart here.
Key:
Experiment in all cases: biochemical
MMP-1 = target: T1, MMP-1 (Homo sapiens, UniProt P03956); details: read-out: MMP-1 IC50
T1 construct: made in house; host or cells: transfected HT-1080 cells (provided by Dr. Harold Welgus, Washington University)
T1 sequence (P03956 100-469): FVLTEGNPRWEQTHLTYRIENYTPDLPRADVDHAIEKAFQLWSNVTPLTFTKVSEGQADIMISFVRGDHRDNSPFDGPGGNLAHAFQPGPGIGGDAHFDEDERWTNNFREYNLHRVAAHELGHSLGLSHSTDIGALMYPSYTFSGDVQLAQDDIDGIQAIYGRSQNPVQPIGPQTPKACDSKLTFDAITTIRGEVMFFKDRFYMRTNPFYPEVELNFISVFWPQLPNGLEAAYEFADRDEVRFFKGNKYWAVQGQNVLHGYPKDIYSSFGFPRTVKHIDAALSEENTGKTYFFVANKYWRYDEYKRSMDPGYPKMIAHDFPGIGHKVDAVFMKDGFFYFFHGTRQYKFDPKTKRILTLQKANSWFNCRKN
Method in brief: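 APMA- or trypsin-activated human MMPs (MMP-1 from transfected HT-1080 cells, MMP-2 from transfected cells) preincubated with inhibitor in 1% DMSO at room temperature, then 4 μM MCA-Pro-Leu-Gly-Leu-Dpa-Ala-Arg-NH2 added in Tris/NaCl/CaCl2 buffer pH 7.5. IC50 from fluorescence reduction versus inhibitor concentration.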

MMP-2 = target: T2, MMP-2 (Homo sapiens, UniProt P08253); details: read-out: MMP-2 IC50
T2 construct: made in house; provided by Dr. Gregory Goldberg, Washington University
T2 sequence (P08253 110-660): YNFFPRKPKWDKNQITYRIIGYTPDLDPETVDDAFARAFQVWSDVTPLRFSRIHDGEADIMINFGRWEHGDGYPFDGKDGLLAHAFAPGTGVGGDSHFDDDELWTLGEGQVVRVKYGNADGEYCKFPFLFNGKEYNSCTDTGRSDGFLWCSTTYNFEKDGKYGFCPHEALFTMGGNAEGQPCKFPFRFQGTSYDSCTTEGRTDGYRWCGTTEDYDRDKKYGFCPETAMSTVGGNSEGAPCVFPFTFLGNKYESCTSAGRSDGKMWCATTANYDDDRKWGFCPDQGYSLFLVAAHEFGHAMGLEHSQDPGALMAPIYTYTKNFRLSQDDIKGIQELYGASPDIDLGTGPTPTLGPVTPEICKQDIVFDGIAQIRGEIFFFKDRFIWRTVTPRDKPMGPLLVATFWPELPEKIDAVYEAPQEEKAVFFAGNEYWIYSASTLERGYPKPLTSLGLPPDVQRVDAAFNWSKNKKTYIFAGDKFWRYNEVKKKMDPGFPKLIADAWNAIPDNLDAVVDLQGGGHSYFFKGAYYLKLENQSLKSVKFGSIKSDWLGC
Method in brief: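 Assay buffer 100 mM Tris-HCl, 100 mM NaCl, 10 mM CaCl2, pH 7.5. Activated MMP + inhibitor, 5 min RT; then methoxycoumarin peptide substrate, 4 μM final. Readout fluorescence; IC50 calculated.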

MMP-13 = target: T3, MMP-13 (Homo sapiens, UniProt P45452); details: read-out: MMP-13 IC50
T3 construct: made in house; host or cells: baculovirus / insect cells
Method in brief: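 APMA- or trypsin-activated enzymes were preincubated with inhibitor for 5 min at room temperature, then the fluorogenic substrate MCA-Pro-Leu-Gly-Leu-Dpa-Ala-Arg-NH2 was added to a final 4 μM.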

[1] = recombinant human MMP-1, MCA peptide substrate 4 μM, pH 7.5, room temperature
[2] = recombinant human MMP-2, MCA peptide substrate 4 μM, pH 7.5, room temperature
[3] = recombinant human MMP-13, MCA peptide substrate 4 μM, pH 7.5, room temperature

| IC50 (MMP-1; [1]) [nM] | IC50 (MMP-2; [2]) [nM] | IC50 (MMP-13; [3]) [nM] | Compound | IC50 (MMP-1) [nM] | IC50 (MMP-2) [nM] | IC50 (MMP-13) [nM] |
| --- | --- | --- | --- | --- | --- | --- |
| > 10000 | 1900 | 13 | COCCN1CCC(C(=O)NO)(S(=O)(=O)c2ccc(N3CCC(C(=O)NCCCc4ccccc4)CC3)cc2)CC1 [Example 237, N-Hydroxy-1-(2-methoxyethyl)-4-[[4-[4-[[(3-phenylpropyl)amino]carbonyl]-1-piperidinyl]-phenyl]sulfonyl]-4-piperidinecarboxamide, Monohydrochloride] |  |  |  |
| > 10000 | 730 | 11.7 | CN(C)c1ccc(NC(=O)C2CCN(c3ccc(S(=O)(=O)C4(C(=O)NO)CCOCC4)cc3)CC2)cc1 [Example 78] |  |  |  |
| > 10000 | 41.8 | 1.1 | N#Cc1ccc(COC2CCN(c3ccc(S(=O)(=O)C4(C(=O)NO)CCOCC4)cc3)CC2)cc1 [Example 180] |  |  |  |
| > 10000 | 110 | 8 | Cc1ccc(S(=O)(=O)N2CCN(c3ccc(S(=O)(=O)C4(C(=O)NO)CCOCC4)cc3)CC2)cc1 [Example 674] |  |  |  |
| > 10000 | 440 | 3.5 | O=C(NO)C1(S(=O)(=O)c2ccc(N3CCC(OCc4ccc(F)cc4)CC3)cc2)CCOCC1 [Example 164] |  |  |  |
| > 10000 | 5700 | 40 | CC1CC(C)CN(C(=O)C2CCN(c3ccc(S(=O)(=O)C4(C(=O)NO)CCOCC4)cc3)CC2)C1 (stereo not drawn) [Example 54] |  |  |  |
| > 10000 | 235 | 7 | O=C(Nc1cccc(C(F)(F)F)c1)OC1CCN(c2ccc(S(=O)(=O)C3(C(=O)NO)CCOCC3)cc2)CC1 [Example 188, N-Hydroxy-4[[[4-[(3-trifluoromethyl)phenylcarbamoxy]piperidyl]phenyl]sulfonyl]-1-tetrahydropyrancarboxamide] |  |  |  |
| > 10000 | 130 | 10 | O=C(NO)C1(S(=O)(=O)c2ccc(N3CCN(S(=O)(=O)c4cccc5nsnc45)CC3)cc2)CCOCC1 [Example 691] |  |  |  |
| > 10000 | > 10000 | 290 | O=C(NO)C1(S(=O)(=O)c2ccc(N3CCC(Oc4c(Cl)cc(C(F)(F)F)cc4Cl)CC3)cc2)CCOCC1 [Example 570] |  |  |  |
| > 10000 | 0.4 | 2.1 | COCCNCC(=O)N1CCC(C(=O)NO)(S(=O)(=O)c2ccc(Oc3ccc(C(F)(F)F)cc3)cc2)CC1 [Example 332] |  |  |  |
| > 10000 | 800 | 13 | COc1cccc(NC(=O)C2CCN(c3ccc(S(=O)(=O)C4(C(=O)NO)CCOCC4)cc3)CC2)c1 [Example 72] |  |  |  |
| > 10000 | 1300 | 9 | CCC(C)COCc1ccc(COC2CCN(c3ccc(S(=O)(=O)C4(C(=O)NO)CCOCC4)cc3)CC2)cc1 (stereo not drawn) [Example 601] |  |  |  |
| > 10000 | 150 | 4.5 | O=C(NO)C1(S(=O)(=O)c2ccc(OC3CN(S(=O)(=O)Cc4ccccc4)C3)cc2)CCOCC1 [Example 850] |  |  |  |

The next lines start with the compound.

| Compound | IC50 (MMP-1; [1]) [nM] | IC50 (MMP-2; [2]) [nM] | IC50 (MMP-13; [3]) [nM] | IC50 (MMP-1) [nM] | IC50 (MMP-2) [nM] | IC50 (MMP-13) [nM] |
| --- | --- | --- | --- | --- | --- | --- |
| O=C(NO)C1(S(=O)(=O)c2ccc(N3CCCN(S(=O)(=O)c4ccc(C(F)(F)F)cc4)CC3)cc2)CCOCC1 [Example 697] | > 10000 | 1500 | 18.1 |  |  |  |
| CCOc1ccccc1N1CCN(C(=O)C2CCN(c3ccc(S(=O)(=O)C4(C(=O)NO)CCOCC4)cc3)CC2)CC1 [Example 24] |  |  |  | > 10000 | 4500 | 23.5 |
| O=C(NO)C1(S(=O)(=O)c2ccc(N3CCC(OCc4ccc(OC(F)(F)F)cc4)CC3)cc2)CCN(C2CC2)CC1 [Example 418] | > 10000 | 1400 | 7 |  |  |  |
| CC(C)c1ccc(C(=O)C2CCN(c3ccc(S(=O)(=O)C4(C(=O)NO)CCOCC4)cc3)CC2)cc1 [Example 788] | > 10000 | 445 | 3 |  |  |  |
| CCCCOc1cccc(S(=O)(=O)N2CC(Oc3ccc(S(=O)(=O)C4(C(=O)NO)CCOCC4)cc3)C2)c1 [Example 830] | > 10000 | 2100 | 17.9 |  |  |  |
| O=C(NO)C1(S(=O)(=O)c2ccc(Oc3ccc(OC(F)(F)F)cc3)cc2)CCN(Cc2cc(Cl)cc(Cl)c2)CC1 [Example 348] | > 10000 | 0.8 | 16.5 |  |  |  |
| O=C(NO)C1(S(=O)(=O)c2ccc(N3CCC(Nc4ccccc4O)CC3)cc2)CCOCC1 [Example 842] | > 10000 | 45.4 | 5.5 |  |  |  |
| CC1CC(C)CN(C(=O)C2CCN(c3ccc(S(=O)(=O)C4(C(=O)NO)CCN(C(=O)CN5CCN(CCN6CCOCC6)CC5)CC4)cc3)CC2)C1 (stereo not drawn) [Example 306] | > 10000 | > 10000 | 60 |  |  |  |
| Tetrahydro-4-[[4-(pentaflourooxy)phenyl]sulfonyl]-2H-thiopyran-4-carboxamide [Example 225] | > 10000 | 41.8 | 180 |  |  |  |
| O=C(NO)C1(S(=O)(=O)c2ccc(N3CCC(OCc4ccc(Cl)cc4)CC3)cc2)CCN(C2CC2)CC1 [Example 419] | > 10000 | 400 | 4.2 |  |  |  |
| CC1CC(C)CN(C(=O)C2CCN(c3ccc(S(=O)(=O)C4(C(=O)NO)CCN(C(=O)CNCc5ccncc5)CC4)cc3)CC2)C1 (stereo not drawn) [Example 285] | > 10000 | 9000 | 19.3 |  |  |  |
| CC(=O)c1ccc(OC2CCN(c3ccc(S(=O)(=O)C4(C(=O)NO)CCOCC4)cc3)CC2)cc1 [Example 470] | > 10000 | 2000 | 140 |  |  |  |
| Cc1cccc(N2CCN(c3ccc(S(=O)(=O)C4(C(=O)NO)CCOCC4)cc3)CC2)c1C [Example 490] | > 10000 | 3000 | 61 |  |  |  |
| CCCCOC1CCN(c2ccc(S(=O)(=O)C3(C(=O)NO)CCN(C4CC4)CC3)cc2)CC1 [Example 440] | > 10000 | 240 | 26.8 |  |  |  |
| O=C(NO)C1(S(=O)(=O)c2ccc(N3CCN(C4CCCC4)CC3)cc2)CCOCC1 [Example 488] | > 10000 | 370 | 140 |  |  |  |
| O=C(NO)C1(S(=O)(=O)c2ccc(N3CCC4CCCCC4C3)cc2)CCOCC1 (stereo not drawn) [Example 692] | > 10000 | 22.7 | 10 |  |  |  |
| CC1CCCCN1c1ccc(S(=O)(=O)C2(C(=O)NO)CCOCC2)cc1 (stereo not drawn) [Example 486] | > 10000 | 4000 | 5400 |  |  |  |
| COCCN1CCC(C(=O)NO)(S(=O)(=O)c2ccc(N3CCC(C(=O)N(C)c4ccccc4)CC3)cc2)CC1 [Example 244, 1-[4-[[4-[(Hydroxyamino)carbonyl]-1-(2-methoxyethyl)-4-piperidinyl]-sulfonyl]phenyl]-N-methyl-N-phenyl-4-piperidinecarboxamide, Monohydrate] | > 10000 | 4400 | 67.4 |  |  |  |
| O=C(NO)C1(S(=O)(=O)c2ccc([C@H]3CC[C@@H](c4ccccc4)CC3)cc2)CCOCC1 [Example 781] | > 10000 | 5100 | 800 |  |  |  |
| CC1CC(C)CN(C(=O)C2CCN(c3ccc(S(=O)(=O)C4(C(=O)NO)CCN(C(=O)CNCCc5c[nH]cn5)CC4)cc3)CC2)C1 (stereo not drawn) [Example 281] | > 10000 | > 10000 | 105 |  |  |  |
| COc1ccc(C(=O)C2CCN(c3ccc(S(=O)(=O)C4(C(=O)NO)CCN(C5CC5)CC4)cc3)CC2)cc1 [Example 441] | > 10000 | 420 | 6 |  |  |  |
| COCCN1CCN(CC(=O)N2CCC(C(=O)NO)(S(=O)(=O)c3ccc(N4CCC(C(=O)N5CC(C)CC(C)C5)CC4)cc3)CC2)CC1 (stereo not drawn) [Example 307] | > 10000 | > 10000 | 40 |  |  |  |
| COc1ccc(Oc2ccc(S(=O)(=O)C3(C(=O)NO)CCSCC3)cc2)cc1 [Example 146] |  |  |  | 3000 | 0.3 | 0.2 |
| O=C(NO)C1(S(=O)(=O)c2ccc(Oc3ccc(OC(F)(F)F)cc3)cc2)CCN(C(=S)NCCN2CCOCC2)CC1 [Example 199] | 3000 | < 0.1 | 0.2 |  |  |  |

From patent US6750228B1, “Aromatic sulfone hydroxamic acid metalloprotease inhibitor” (priority 1997, dated 2004)
